Measured values taken from patent US8993752B2, “Neprilysin inhibitors” (Theravance Biopharma R&D IP, LLC, priority 2011, dated 2015).

The compounds below were run against T1, human NEP (Homo sapiens, UniProt P08473) (assay: In vitro enzyme inhibition assay at human NEP (fluorogenic peptide substrate)). Conditions: recombinant human NEP; substrate Mca-D-Arg-Arg-Leu-Dap-(Dnp)-OH 10 μM; 37° C.; values given as ranges; read-out: pKi values at human NEP (converted).
T1 construct: purchased R&D Systems, Minneapolis, Minn; 1182-ZN
T1 sequence (P08473 whole entry): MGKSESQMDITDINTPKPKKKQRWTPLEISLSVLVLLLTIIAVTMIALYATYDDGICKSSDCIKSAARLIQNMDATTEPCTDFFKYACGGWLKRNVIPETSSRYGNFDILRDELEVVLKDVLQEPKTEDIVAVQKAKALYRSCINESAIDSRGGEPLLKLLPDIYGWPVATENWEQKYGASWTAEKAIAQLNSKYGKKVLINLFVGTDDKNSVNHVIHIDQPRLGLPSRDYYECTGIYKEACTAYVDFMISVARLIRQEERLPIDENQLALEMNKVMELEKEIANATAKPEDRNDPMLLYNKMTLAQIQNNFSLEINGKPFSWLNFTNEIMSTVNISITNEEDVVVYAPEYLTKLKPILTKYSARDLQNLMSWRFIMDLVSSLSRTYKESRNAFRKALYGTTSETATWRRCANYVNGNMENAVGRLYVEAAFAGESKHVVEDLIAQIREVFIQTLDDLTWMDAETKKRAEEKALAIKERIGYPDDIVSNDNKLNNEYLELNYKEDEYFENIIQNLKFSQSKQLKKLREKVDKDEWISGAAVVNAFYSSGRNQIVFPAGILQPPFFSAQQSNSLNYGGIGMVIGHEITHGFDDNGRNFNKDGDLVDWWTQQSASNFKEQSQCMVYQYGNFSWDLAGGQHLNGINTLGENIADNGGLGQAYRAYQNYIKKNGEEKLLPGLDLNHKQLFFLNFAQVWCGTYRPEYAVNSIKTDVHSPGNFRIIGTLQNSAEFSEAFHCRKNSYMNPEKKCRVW
Assay type: biochemical
Summary of the method: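 Recombinant human NEP pre-incubated 30 min at 37 °C with compound (10 μM to 20 pM), then 10 μM Mca-D-Arg-Arg-Leu-Dap-(Dnp)-OH in 50 mM HEPES pH 7.5, 100 mM NaCl, 0.01% Tween-20, 10 μM ZnSO4. Stopped after 20 min with acetic acid, fluorescence read at 320/405 nm; Ki from nonlinear fit, reported as pKi.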

First: CN(C)C(=O)c1cc(C(=O)N[C@H](Cc2ccccc2Cl)[C@@H](O)C(=O)O)nn1Cc1ccc(F)cc1 [Example 2-72, (2R,3R)-4-(2-Chloro-phenyl)-3-{[5-dimethylcarbamoyl-1-(4-fluoro-benzyl)-1H-pyrazole-3-carbonyl]-amino}-2-hydroxy-butyric acid]
Second: O=C(N[C@H](Cc1ccccc1)[C@@H](O)C(=O)O)c1cc(C(=O)O)n(Cc2ccc(F)cc2)n1 [Example 8-9, 5-((1R,2R)-1-Benzyl-2-carboxy-2-hydroxy-ethylcarbamoyl)-2-(4-fluoro-benzyl)-2H-pyrazole-3-carboxylic acid]
The Ki of the first is higher: 12.6 to 100 nM for the first, 1.26 to 10 nM for the second.

First: COc1ccc(Cn2nc(C(=O)N[C@H](Cc3ccccc3Cl)[C@@H](O)C(=O)O)cc2O)c(F)c1F [Example 2-68, (2R,3R)-4-(2-Chloro-phenyl)-3-{[1-(2,3-difluoro-4-methoxy-benzyl)-5-hydroxy-1H-pyrazole-3-carbonyl]-amino}-2-hydroxy-butyric acid]
Second: COc1ccc(Cn2nc(C(=O)N[C@H](Cc3ccccc3Cl)[C@@H](O)C(=O)O)cc2C(=O)O)c(F)c1F [Example 2-27, 5-[(1R,2R)-2-Carboxy-1-(2-chloro-benzyl)-2-hydroxy-ethylcarbamoyl]-2-(2,3-difluoro-4-methoxy-benzyl)-2H-pyrazole-3-carboxylic acid]
The Ki of the first is higher: 12.6 to 100 nM for the first, at most 1 nM for the second.

First: CN(C)C(=O)c1cc(C(=O)N[C@H](Cc2ccccc2C(F)(F)F)[C@@H](O)C(=O)O)n[nH]1 [Example 6-7, (2R,3R)-3-[(5-Dimethylcarbamoyl-1H-pyrazole-3-carbonyl)-amino]-2-hydroxy-4-(2-trifluoromethyl-phenyl)-butyric acid]
Second: O=C(N[C@H](Cc1ccccc1)[C@@H](O)C(=O)O)c1cc(C(=O)O)[nH]n1 [Example 8-10, 5-((1R,2R)-1-Benzyl-2-carboxy-2-hydroxy-ethylcarbamoyl)-2H-pyrazole-3-carboxylic acid]
The Ki of the first is lower: 1.26 to 10 nM for the first, 12.6 to 100 nM for the second.

Compared with `COc1cc(F)c(Cn2nc(C(=O)N[C@H](Cc3ccccc3Cl)[C@@H](O)C(=O)O)cc2C(=O)O)c(F)c1` [Example 2-32, 5-[(1R,2R)-2-Carboxy-1-(2-chloro-benzyl)-2-hydroxy-ethylcarbamoyl]-2-(2,6-difluoro-4-methoxy-benzyl)-2H-pyrazole-3-carboxylic acid], `COc1c(F)cc(Cn2nc(C(=O)N[C@H](Cc3ccccc3Cl)[C@@H](O)C(=O)O)cc2C(=O)O)cc1Cl` [Example 2-17, 5-[(1R,2R)-2-Carboxy-1-(2-chloro-benzyl)-2-hydroxy-ethylcarbamoyl]-2-(3-chloro-5-fluoro-4-methoxy-benzyl)-2H-pyrazole-3-carboxylic acid] is higher in Ki: at most 1 nM for the first, 1.26 to 10 nM for the second.

`CSc1ccc(Cn2nc(C(=O)N[C@H](Cc3ccccc3)[C@@H](O)C(=O)O)cc2C2CC2)cc1` [Example 8-23, (2R,3R)-3-{[5-Cyclopropyl-1-(4-methylsulfanyl-benzyl)-1H-pyrazole-3-carbonyl]-amino}-2-hydroxy-4-phenyl-butyric acid] and `CCCc1cc(C(=O)N[C@H](Cc2ccccc2)[C@@H](O)C(=O)O)nn1Cc1ccccc1` [Example 8-19, (2R,3R)-3-[(1-Benzyl-5-propyl-1H-pyrazole-3-carbonyl)-amino]-2-hydroxy-4-phenyl-butyric acid] fall in the same range of Ki: 12.6 to 100 nM for the first, 12.6 to 100 nM for the second.

First: O=C(O)C[C@@H](Cc1ccccc1Cl)NC(=O)c1cc(C(=O)O)n(Cc2ccc(Cl)cc2)n1 [Example 11-3, 5-[(R)-2-Carboxy-1-(2-chloro-benzyl)-ethylcarbamoyl]-2-(4-chloro-benzyl)-2H-pyrazole-3-carboxylic acid]
Second: O=C(O)C[C@@H](Cc1ccccc1Cl)NC(=O)c1cc(C(=O)O)n(Cc2cccc(Cl)c2)n1 [Example 10, 5-[(R)-2-Carboxy-1-(2-chlorobenzyl)-ethylcarbamoyl]-2-(3-chlorobenzyl)-2H-pyrazole-3-carboxylic Acid]
The Ki of the first is higher: 12.6 to 100 nM for the first, 1.26 to 10 nM for the second.

`Cc1cccc(C)c1Cn1nc(C(=O)N[C@H](Cc2ccccc2Cl)[C@@H](O)C(=O)O)cc1C(=O)O` [Example 2-43, 5-[(1R,2R)-2-Carboxy-1-(2-chloro-benzyl)-2-hydroxy-ethylcarbamoyl]-2-(2,6-dimethyl-benzyl)-2H-pyrazole-3-carboxylic acid] was tested, and the Ki was 1.26 to 10 nM.
